According to US20110104103A1, “Method of conjugating therapeutic compounds to cell targeting devices via metal complexes” (KREATECH BIOTECHNOLOGY B.V., priority 2005, published 2011):
pIC50: −log10 of the molar value. Entries after “also recorded” stand apart in the source; their conditions may differ.

Assays:
UUO rats = assay: Unilateral ureteral obstruction (UUO) model of renal fibrosis; assay type: in vivo; settings: day 3
Method: Animals were divided into 4 groups: normal rats, fibrotic control animals (vehicle, 5% glucose), TKI-LZM (25 mg/kg equiv. to 630 μg/kg TKI) and free, unconjugated TKI (630 μg/kg). TKI was dissolved in 20% hydroxylpropyl-β-cyclodextrin in water with 5% DMSO, whereas TKI-LZM was dissolved in 5% glucose. To allow unhindered uptake of the products in the kidneys, rats were injected intravenously with either of these compounds 2 h before the uretheral obstruction. Left kidneys and ureter were exposed via a flank-incision under isoflurane anesthesia after which the ureter was ligated at three sites with 4-0 silk near the hilum. After 3 days, animals were sacrificed under anesthesia and kidneys were gently flushed and harvested. Kidney cortex pieces were snap-frozen to isolate RNA as described above. Kidney pieces were fixed in 4% formalin solution in PBS to make paraffin-embedded sections for anti-α-SMA and ED-1 immunohistochemical staining and morphometric analysis.

[1] = tested on: endothelial cells (HUVEC); assay: Binding of 89Zr-radiolabeled RGD-equipped complex to endothelial cells; set-up: species or system human; settings: 4° C. for 4 h
Method: The interaction of cell targeting complexes with target cells was investigated in cultured target cells. Typically, in vitro targeting studies were performed by incubating target cells with the complexes, at either 4° C. or 37° C. Binding and/or internalization of the complexes by target cells was detected by either immunohistochemical staining for the complex (e.g. anti-HSA or anti-LZM staining) or by quantification of a radioactive reporter group that had been introduced in the complex (e.g. ^125I).
Binding of RGD-equipped complexes to endothelial cells was studied using ^89Zr-radiolabeled compounds.

[2] = biological target: T1, αvβ3-integrin expressed on the surface of HUVEC (Homo sapiens, UniProt P05106+P06756); assay: Competitive displacement of 125I-labeled echistatin; settings: displacement of 125I-echistatin, read-out: IC50 (binding affinity)
T1 construct: αvβ3-integrin expressed on the surface of HUVEC; endogenous in cells; host or cells: HUVEC (confluent monolayers)
Method: In a different experimental setup that allowed the calculation for binding constants, we explored the affinity of RGD-equipped PTK787-cisULS-albumins. ^125I-labeled echistatin was used as a radioligand for αvβ3-integrin expressed on the surface of HUVEC. Competitive binding studies were performed by coincubating using confluent monolayers of HUVEC with the radiolabeled ligand and non-radiolabeled complexes.

[3] = tested on: hepatic fibrosis in BDL rats; assay: Antifibrotic effect of losartan-cisULS-M6PHSA in BDL model of liver fibrosis; assay type: in vivo; settings: four daily doses
Method: Ten minutes after the last dose, animals were sacrificed and blood and liver samples were obtained. […] The extraction was performed by adding 3 ml of methyl butyl ether to 200 μl of liver homogenate and vortexing for 5 min. Layers were separated by centrifugation at 900×g for 5 min and the aqueous layer was frozen in liquid nitrogen. The upper organic layer was transferred to another borosilicate glass tube and evaporated completely at 60° C. The extraction procedure was repeated twice and the total residue was reconstituted in 200 μl of mobile phase. Chromatography was carried out using a C18 (C18, 5 μm, 4.6×150 mm) reversed-phase column (Surefire, Waters Inc., Milford, Mass., USA) at 40° C. with an isocratic mobile phase consisting of acetonitrile-water-trifluoroacetic acid (30:70:0.1, v/v/v; pH 2.0).
Animal experiments were performed as described above.

[4] = Organ distribution and liver losartan levels in BDL rats; assay type: in vivo
Method: The extraction was performed by adding 3 ml of methyl butyl ether to 200 μl of liver homogenate and vortexing for 5 min. Layers were separated by centrifugation at 900×g for 5 min and the aqueous layer was frozen in liquid nitrogen. The upper organic layer was transferred to another borosilicate glass tube and evaporated completely at 60° C. The extraction procedure was repeated twice and the total residue was reconstituted in 200 μl of mobile phase. Chromatography was carried out using a C18 (C18, 5 μm, 4.6×150 mm) reversed-phase column (Surefire, Waters Inc., Milford, Mass., USA) at 40° C. with an isocratic mobile phase consisting of acetonitrile-water-trifluoroacetic acid (30:70:0.1, v/v/v; pH 2.0).

I/R rats = assay: Unilateral ischemia/reperfusion injury (I/R) model; assay type: in vivo
[5] = 5 mg/kg of free SB202190, 4 h after administration; cited from earlier work
[6] = tested on: IL8 gene expression in HUVEC treated with TNF; assay: IL8 gene expression in TNF-treated HUVEC; assay type: cell-based, human; settings: 10 μM
[7] = Platinum-related toxicity of SB202190-cisULS-LZM in normal rats; assay type: in vivo, Male Wistar rats
Source text: In addition to drug related effects, we investigated whether administration of cell targeting complexes to healthy rats induced potential platinum related toxicity. Since the kidney is one of the major sites of platinum toxicity of cytostatic compounds, we performed these studies with SB202190-cisULS-LZM which accumulates in the kidney. We investigated morphology and induction of apoptosis (TUNEL staining), as well as basic renal parameters.
In order to detect potential platinum-related toxicity of kidney directed cell targeting complexes, we evaluated SB202190-cisULS-LZM in healthy rats.
To examine the effect on renal function, serum and urine creatinine levels were determined and creatinine clearances were calculated. […] To calculate proteinuria for the SB202190-cisULS-LZM group, the mean of the urinary protein levels at different days was taken. TUNEL stainings were performed on frozen kidney sections to examine the number of apoptotic cells. In addition, we determined the platinum levels in kidneys using […] after digestion of the tissue in concentrated nitric acid for 24 h at room temperature and heating at 70° C. until the formation of clear solution.

[8] = Drug release studies (stability of drug-carrier linkage); assay type: in vitro ADME
Method: The stability of the drug-carrier linkage was investigated by incubating cell targeting complexes at 37° C. under several conditions, e.g. buffers, buffers spiked with drug releasing substances or biological media.

[9] = Pharmacokinetic evaluation of kidney directed complexes in healthy rats; assay type: in vivo, Wistar rats
Method: Organ distribution studies with this type of cell targeting complexes were performed in healthy Wistar rats. All in vivo experiments were approved by the Local Committee for Care and Use of Laboratory Animals.
Rats were injected intravenously with a single dose of the SB202190-cisULS-lysozyme conjugate (16 mg/kg equivalent to 376 μg/kg of SB202190; dissolved in 5% glucose) via the penile vein. Animals were sacrificed at different time points between 1 and 72 h after administration. Blood samples were collected by heart puncture and kidneys were isolated after flushing the organs gently with saline. Serum and organs were snap-frozen into liquid nitrogen immediately. Urine samples were collected using metabolic cages and combined with the urine collected from urinary bladder after sacrificing the animals. Kidneys were weighed, homogenized (1:3 w/v in PBS, Turrax homogenization) and then stored at −80° C. Released drug amounts were estimated by HPLC analysis after extraction as described before. To estimate total drug (bound plus released), samples were treated with KSCN to release SB202190 from the ULS linker as described above and then subjected to HPLC analysis. Anti-LZM immunohistochemical staining was performed on cryostat kidney sections to detect the uptake of the conjugate in tubular cells.
Renal drug levels were assayed in KSCN-treated kidney homogenates and serum samples using HPLC methods optimized for the respective drugs. Y27632 was analyzed on a C18 reversed-phase SunFire™ column C18 using a mobile phase of water-methanol-trifluoroacetic acid (86:14:0.1, v/v/v; pH 2.0) at a flow rate of 1 ml/min. TKI was analyzed on the same column using a mobile phase consisted of water-acetonitrile-trifluoroacetic acid (91:09:0.1, v/v/v; pH 2.0) at a flow rate of 1 ml/min.

[10] = tested on: activated hepatic stellate cells (HSC); assay: Immunohistochemical staining of fibrosis markers in HSC after 24 h incubation; assay type: cell-based; settings: conjugates 1 mg/ml (100 μM PTX), non-targeted PTX 1 mM
Method: The pharmacological effects of the conjugates were tested on different cultured cell types, e.g. activated hepatic stellate cells (HSC), kidney tubular cells (HK-2 cells) or human umbilical cord endothelial cells (HUVEC). Typically, cells were incubated for 24 h at 37° C. with the conjugates. Subsequently, the cells were subjected to analyses related to pharmacological activity of the coupled drug (gene expression analysis, immunohistochemcial evaluation of effect markers), or assays related to potential cytotoxicity of the complexes (cell viability assays, apoptosis assays).
FIG. 5. […] Cells were stained for collagen type I or α-smooth muscle actin and counterstained with hematoxillin. […] Magnification 10×. One of the hallmarks of liver fibrosis is the induced expression and production of a-smooth muscle actin (aSMA) and collagen type 1 by activated HSC. These proteins were therefore selected as read-out parameters of the antifibrotic effects of the targeted PTX.

[11] = four i.v. doses, 20 mg/kg conjugate or 555 μg/kg Y27632
[12] = normal rats, mean ± SEM, SB-ULS-LZM at 24, 32, 48 and 72 h, cisplatin 3 mg/kg i.v. at 24 h

T1 sequence (P06756 31-889 limits assumed): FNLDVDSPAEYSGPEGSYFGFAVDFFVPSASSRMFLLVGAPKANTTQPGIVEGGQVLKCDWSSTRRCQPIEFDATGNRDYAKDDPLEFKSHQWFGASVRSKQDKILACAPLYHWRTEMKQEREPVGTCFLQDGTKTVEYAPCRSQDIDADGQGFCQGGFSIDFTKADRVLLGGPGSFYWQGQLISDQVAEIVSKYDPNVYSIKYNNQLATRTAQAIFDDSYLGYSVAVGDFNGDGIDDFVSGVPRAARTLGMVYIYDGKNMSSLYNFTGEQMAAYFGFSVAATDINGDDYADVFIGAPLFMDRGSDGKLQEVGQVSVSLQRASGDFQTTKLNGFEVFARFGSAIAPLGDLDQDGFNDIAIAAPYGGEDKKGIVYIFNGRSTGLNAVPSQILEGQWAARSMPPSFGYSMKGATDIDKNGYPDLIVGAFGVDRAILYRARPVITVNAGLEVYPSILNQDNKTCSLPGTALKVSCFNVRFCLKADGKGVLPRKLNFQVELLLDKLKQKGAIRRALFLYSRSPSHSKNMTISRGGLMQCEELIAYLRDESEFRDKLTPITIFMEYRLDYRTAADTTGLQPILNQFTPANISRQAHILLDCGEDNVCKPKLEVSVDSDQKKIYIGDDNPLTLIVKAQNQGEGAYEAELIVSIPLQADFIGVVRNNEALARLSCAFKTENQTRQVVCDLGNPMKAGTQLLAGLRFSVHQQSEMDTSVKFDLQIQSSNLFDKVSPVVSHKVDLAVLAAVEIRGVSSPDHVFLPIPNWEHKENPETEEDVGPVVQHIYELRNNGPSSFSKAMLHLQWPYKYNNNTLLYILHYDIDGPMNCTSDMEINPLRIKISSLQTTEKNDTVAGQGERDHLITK
T1 sequence (P06756 891-1048 partner limits assumed): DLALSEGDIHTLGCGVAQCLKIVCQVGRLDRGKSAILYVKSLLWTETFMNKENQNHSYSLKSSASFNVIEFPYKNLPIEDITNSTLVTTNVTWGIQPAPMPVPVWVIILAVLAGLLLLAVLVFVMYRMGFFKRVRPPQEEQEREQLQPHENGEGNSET
T1 sequence (P05106 27-788): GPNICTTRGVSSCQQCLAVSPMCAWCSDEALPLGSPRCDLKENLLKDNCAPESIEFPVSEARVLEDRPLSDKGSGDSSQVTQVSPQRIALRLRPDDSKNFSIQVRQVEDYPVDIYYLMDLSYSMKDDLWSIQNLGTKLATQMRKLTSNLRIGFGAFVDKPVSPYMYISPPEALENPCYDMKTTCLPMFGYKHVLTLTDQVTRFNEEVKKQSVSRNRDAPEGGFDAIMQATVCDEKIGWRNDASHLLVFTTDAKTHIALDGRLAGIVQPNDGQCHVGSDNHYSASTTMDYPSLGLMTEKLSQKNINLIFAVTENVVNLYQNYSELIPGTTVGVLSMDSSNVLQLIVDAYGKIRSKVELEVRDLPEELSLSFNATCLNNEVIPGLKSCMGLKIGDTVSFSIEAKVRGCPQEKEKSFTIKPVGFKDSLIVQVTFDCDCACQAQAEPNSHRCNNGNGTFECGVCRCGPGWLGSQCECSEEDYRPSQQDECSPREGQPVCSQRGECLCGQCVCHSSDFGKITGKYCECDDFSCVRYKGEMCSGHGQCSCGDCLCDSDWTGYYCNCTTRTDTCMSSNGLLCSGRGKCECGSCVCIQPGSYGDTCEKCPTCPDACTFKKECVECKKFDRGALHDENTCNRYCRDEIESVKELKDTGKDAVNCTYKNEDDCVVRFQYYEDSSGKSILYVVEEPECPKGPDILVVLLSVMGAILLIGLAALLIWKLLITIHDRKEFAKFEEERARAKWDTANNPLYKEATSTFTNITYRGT

## c1ccc(-c2n[nH]cc2-c2ccnc3ccccc23)nc1 [TKI, 3-(Pyridin-2-yl)-4-(4-quinonyl)-1H-pyrazole]
UUO rats; single dose 25 mg/kg conjugate or 630 μg/kg TKI
  MCP-1 gene expression in kidney: did not lower the expressions of MCP-1
UUO rats; single dose
  expression of the fibrosis marker α-SMA: significantly decreased
  infiltrated macrophages (ED-1 immunostaining): a reduction of ED-1 immunostaining

## c(RGDf(ε-S-acetylthioacetyl)K) [RGD-peptide]
[1]
  displacement of binding of RGDPEG-SB202190-cisULS-HSA: could be displaced

## RGDPEG-avidin: avidin with RGD-peptide via vinylsulfone-PEG-NHS, average 5.4 RGD groups per avidin
[2]
  pIC50: 6.87

## CCCCc1nc(Cl)c(CO)n1Cc1ccc(-c2ccccc2-c2nn[nH]n2)cc1 [losartan]
[3]
  hepatic fibrosis, Sirius Red staining: Severe bridging
  αSMA-positive cells in liver: marked accumulation of αSMA-positive cells
[4]; BDL rats, 10 min after last dose
  liver losartan as % of the cumulative dose: 4%
[4]; rat, liver, oral, 5 mg/kg/day
  concentration at 10 min: 12100 ng/g

## Y27632-cisULS-LZM: Y27632-cisULS reacted with met-LZM, 1-2 Y27632 per LZM
I/R rats; [11]
  infiltration of macrophages, ED-1 staining morphometric score: significantly reduced the morphometric score of the stained areas
  α-SMA staining morphometric score: significantly reduced the morphometric score of the stained areas

## Oc1ccc(-c2nc(-c3ccncc3)c(-c3ccc(F)cc3)[nH]2)cc1 [SB202190, 4-(-Fluorophenyl)-2-(4-hydroxy-phenyl)-5-(4-pyridyl)-1H-imidazole]
[5]
  fraction distributed to the kidney: 0.2%
[6]
  IL8 gene expression level after inhibition: 40%

## SB202190-cisULS-LZM
[7]; as compared to untreated rats
  tubular cell apoptosis by TUNEL staining: no increase in the number of apoptotic cells
[7]; in comparison to untreated rats
  urinary protein levels: an increase in urinary protein levels
[7]; normal rats, kidney sections, mean ± SEM, cisplatin at 24 h
  TUNEL positive cells: 42.7 ± 18 numbers per field
[7]; normal rats, ICP-AAS, mean ± SEM
  Renal platinum concentration: 37.0 ± 1.2 nmol/g
[7]; normal rats, mean ± SEM
  Change in body weight: +0.3 ± 1.2 %
[7]; [12]
  Creatinine clearance: 0.8 ± 0.03 mL/min
  urinary protein levels: 29.6 ± 2.0 mg/day
[8]; 37° C. in PBS pH 7.4 or rat serum
  Stability / release of SB202190: high stability in buffer or serum
[8]; 37° C., kidney homogenate in PBS 1/3 (w/v)
  Release of SB202190: continuously released free drug
[9]; 16 mg/kg i.v. single dose, 1-72 h
  free drug in serum / serum stability: free drug was absent at all time points; also recorded: remained stable in the serum
[9]; 16 mg/kg i.v., within 1 h
  accumulation in the kidneys: 20 % of the injected dose
[9]; kidney sections
  accumulation in proximal tubular cells (anti-LZM staining): accumulation of the conjugate in proximal tubular cells was confirmed
[9]; single dose 16 mg/kg i.v.
  renal levels of free and bound drug over time: continuous levels of both free drug and bound drug during a three-day period

## CC(=O)CCCCn1c(=O)c2c(ncn2C)n(C)c1=O [PTX, 3,7-dimethyl-1-(5-oxohexyl)purine-2,6-dione]
[10]
  aSMA staining intensity: reduced the intensity of both collagen type I production and aSMA
  collagen type I staining: reduced the intensity of both collagen type I production and aSMA

## losartan-cisULS-LZM
I/R rats; four doses 20 mg/kg/day
  number of infiltrated macrophages (ED-1): reduced the number of infiltrated macrophages
